Assay results from PubChem BioAssay AID1259407 (Chemical Carcinogenesis Research Information System (CCRIS), 2018).
Active and inactive are the calls of the source. The rule behind the calls is not given here.

Test system: CCRIS mutagenicity, Ames/micronucleus/aberration tests
Test: CCRIS mutagenicity studies
[1] = Test System: AMES SALMONELLA TYPHIMURIUM, Strain/Indicator: TA98, Metabolic Activation: NONE, Method: STANDARD PLATE
[2] = Test System: AMES SALMONELLA TYPHIMURIUM, Strain/Indicator: TA98, Metabolic Activation: RAT, LIVER, S-9, AROCLOR 1254, Method: STANDARD PLATE
[3] = Test System: AMES SALMONELLA TYPHIMURIUM, Strain/Indicator: TA100, Metabolic Activation: NONE, Method: STANDARD PLATE
[4] = Test System: AMES SALMONELLA TYPHIMURIUM, Strain/Indicator: TA1535, Metabolic Activation: NONE, Method: STANDARD PLATE
[5] = Test System: AMES SALMONELLA TYPHIMURIUM, Strain/Indicator: TA1538, Metabolic Activation: NONE, Method: STANDARD PLATE
[6] = Test System: AMES SALMONELLA TYPHIMURIUM, Strain/Indicator: TA1538, Metabolic Activation: RAT, LIVER, S-9, AROCLOR 1254, Method: STANDARD PLATE
[7] = Test System: AMES SALMONELLA TYPHIMURIUM, Strain/Indicator: TA98, Metabolic Activation: NONE, Method: PREINCUBATION
[8] = Test System: AMES SALMONELLA TYPHIMURIUM, Strain/Indicator: TA100, Metabolic Activation: NONE, Method: PREINCUBATION
[9] = Test System: AMES SALMONELLA TYPHIMURIUM, Strain/Indicator: TA100, Metabolic Activation: RAT, LIVER, S-9, AROCLOR 1254, Method: STANDARD PLATE
[10] = Test System: AMES SALMONELLA TYPHIMURIUM, Strain/Indicator: TA1535, Metabolic Activation: RAT, LIVER, S-9, AROCLOR 1254, Method: STANDARD PLATE
[11] = Test System: AMES SALMONELLA TYPHIMURIUM, Strain/Indicator: TA1537, Metabolic Activation: NONE, Method: STANDARD PLATE
[12] = Test System: AMES SALMONELLA TYPHIMURIUM, Strain/Indicator: TA1537, Metabolic Activation: RAT, LIVER, S-9, AROCLOR 1254, Method: STANDARD PLATE

For `O=[N+]([O-])c1ccc(NO)cc1`, the mutagenic call (Test System: AMES SALMONELLA TYPHIMURIUM, Strain/Indicator: TA98(NR), Metabolic Activation: NONE, Method: STANDARD PLATE) was “active; positive”, the mutagenic call (Test System: AMES SALMONELLA TYPHIMURIUM, Strain/Indicator: TA98(NR), Metabolic Activation: RAT, LIVER, S-9, AROCLOR 1254, Method: STANDARD PLATE) was “inactive; negative” and the mutagenic call [1] was “active; positive”. The mutagenic call [2] was “active; positive”, the mutagenic call [3] was “active; positive” and the mutagenic call [4] was “active; positive”. For the same compound, the mutagenic call (Test System: AMES SALMONELLA TYPHIMURIUM, Strain/Indicator: TA1538(NR), Metabolic Activation: NONE, Method: STANDARD PLATE) was “active; positive”, the mutagenic call (Test System: AMES SALMONELLA TYPHIMURIUM, Strain/Indicator: TA1538(NR), Metabolic Activation: RAT, LIVER, S-9, AROCLOR 1254, Method: STANDARD PLATE) was “active; positive” and the mutagenic call [5] was “active; positive”. For the same compound, the mutagenic call [6] was “active; positive”, the mutagenic call (Test System: E. COLI, Strain/Indicator: WP2 UVRA(P), Metabolic Activation: NONE, Method: STANDARD PLATE) was “active; positive” and the mutagenic call (Test System: E. COLI, Strain/Indicator: WP2 UVRA, Metabolic Activation: NONE, Method: FLUCTUATION TEST) was “active; positive”. The mutagenic call (Test System: E. COLI, Strain/Indicator: WP2 UVRA, Metabolic Activation: NONE, Method: STANDARD PLATE) was “inactive; negative”.
For `CCN(CC(O)c1ccc([N+]#N)c([O-])c1)N=O` (centres undefined), the mutagenic call [7] was “active; positive”, the mutagenic call (Test System: AMES SALMONELLA TYPHIMURIUM, Strain/Indicator: TA98, Metabolic Activation: RAT LIVER S-9, PCB, Method: PREINCUBATION) was “active; positive” and the mutagenic call [8] was “active; positive”. For the same compound, the mutagenic call (Test System: AMES SALMONELLA TYPHIMURIUM, Strain/Indicator: TA100, Metabolic Activation: RAT LIVER S-9, PCB, Method: PREINCUBATION) was “active; positive”.
In the case of `CCC(=O)OCc1ccc([N+](=O)[O-])cc1`, the mutagenic call [7] is reported as “inactive; negative”, the mutagenic call (Test System: AMES SALMONELLA TYPHIMURIUM, Strain/Indicator: TA100(NR), Metabolic Activation: NONE, Method: PREINCUBATION) is reported as “inactive; negative” and the mutagenic call [8] is reported as “active; positive”. The mutagenic call (Test System: AMES SALMONELLA TYPHIMURIUM, Strain/Indicator: TA100, Metabolic Activation: RAT, LIVER, S-9, AROCLOR 1254, Method: PREINCUBATION) was “active; positive”.
For `CS(=O)CC[C@H](N)C(=O)O.Cc1ccc(NCC(=O)N(CC(=O)O)CC(=O)O)c(C)c1.[H+].[H+].[Pt]`, the mutagenic call (Test System: MOUSE LYMPHOMA, Strain/Indicator: L5178Y(LY-R) (HGPRT)/6-THIOGUANINE, Metabolic Activation: NONE) was “active; positive”.
For `COc1cc(N=Nc2ncc([N+](=O)[O-])s2)c(NC(C)=O)cc1N(CCOC(=O)OCC(C)C)CCOC(=O)OCC(C)C`, the mutagenic call (End Point: IN VITRO CHROMOSOMAL ABERRATIONS, Test System: CHL CELLS, Metabolic Activation: RAT, LIVER, S-9, SODIUM PHENOBARBITAL AND 5,6-BENZOFLAVONE) was “active; positive (ploidy changes)”.
In the case of `C=C(C)C(=O)OCCOCCOC(=O)C(=C)C`, the mutagenic call [1] is reported as “inactive; negative”, the mutagenic call [2] is reported as “inactive; negative” and the mutagenic call (Test System: AMES SALMONELLA TYPHIMURIUM, Strain/Indicator: TA98, Metabolic Activation: RAT, LIVER, S-9, SODIUM PHENOBARBITAL, Method: STANDARD PLATE) is reported as “inactive; negative”. For the same compound, the mutagenic call [3] was “inactive; negative”, the mutagenic call [9] was “inactive; negative” and the mutagenic call (Test System: AMES SALMONELLA TYPHIMURIUM, Strain/Indicator: TA100, Metabolic Activation: RAT, LIVER, S-9, SODIUM PHENOBARBITAL, Method: STANDARD PLATE) was “inactive; negative”. For the same compound, the mutagenic call [4] was “inactive; negative”, the mutagenic call [10] was “inactive; negative” and the mutagenic call (Test System: AMES SALMONELLA TYPHIMURIUM, Strain/Indicator: TA1535, Metabolic Activation: RAT, LIVER, S-9, SODIUM PHENOBARBITAL, Method: STANDARD PLATE) was “inactive; negative”. For the same compound, the mutagenic call [11] was “inactive; negative”, the mutagenic call [12] was “inactive; negative” and the mutagenic call (Test System: AMES SALMONELLA TYPHIMURIUM, Strain/Indicator: TA1537, Metabolic Activation: RAT, LIVER, S-9, SODIUM PHENOBARBITAL, Method: STANDARD PLATE) was “inactive; negative”. The mutagenic call [5] was “inactive; negative”, the mutagenic call [6] was “inactive; negative” and the mutagenic call (Test System: AMES SALMONELLA TYPHIMURIUM, Strain/Indicator: TA1538, Metabolic Activation: RAT, LIVER, S-9, SODIUM PHENOBARBITAL, Method: STANDARD PLATE) was “inactive; negative”.
In the case of `CC(C)=CC1C(C(=O)OCc2coc(Cc3ccccc3)c2)C1(C)C` (centres undefined), the mutagenic call (Test System: AMES SALMONELLA TYPHIMURIUM, Strain/Indicator: TA97, Metabolic Activation: NONE, Method: STANDARD PLATE) is reported as “inactive; negative”, the mutagenic call (Test System: AMES SALMONELLA TYPHIMURIUM, Strain/Indicator: TA97, Metabolic Activation: RAT, LIVER, S-9, PHENOBARBITONE, Method: STANDARD PLATE) is reported as “inactive; negative” and the mutagenic call (Test System: AMES SALMONELLA TYPHIMURIUM, Strain/Indicator: TA98) is reported as “active; positive”. For the same compound, the mutagenic call (Test System: AMES SALMONELLA TYPHIMURIUM, Strain/Indicator: TA98, Metabolic Activation: NONE) was “inactive; negative”, the mutagenic call [1] was “inactive; negative” and the mutagenic call [2] was “inactive; negative”. The mutagenic call (Test System: AMES SALMONELLA TYPHIMURIUM, Strain/Indicator: TA98, Metabolic Activation: RAT, LIVER, S-9, PHENOBARBITONE, Method: STANDARD PLATE) was “inactive; negative”, the mutagenic call (Test System: AMES SALMONELLA TYPHIMURIUM, Strain/Indicator: TA100) was “active; positive” and the mutagenic call (Test System: AMES SALMONELLA TYPHIMURIUM, Strain/Indicator: TA100, Metabolic Activation: NONE) was “inactive; negative”. For the same compound, the mutagenic call [3] was “inactive; negative”, the mutagenic call [9] was “inactive; negative” and the mutagenic call (Test System: AMES SALMONELLA TYPHIMURIUM, Strain/Indicator: TA100, Metabolic Activation: RAT, LIVER, S-9, PHENOBARBITONE, Method: STANDARD PLATE) was “inactive; negative”. The mutagenic call (Test System: AMES SALMONELLA TYPHIMURIUM, Strain/Indicator: TA104, Metabolic Activation: NONE, Method: STANDARD PLATE) was “inactive; negative”, the mutagenic call (Test System: AMES SALMONELLA TYPHIMURIUM, Strain/Indicator: TA104, Metabolic Activation: RAT, LIVER, S-9, PHENOBARBITONE, Method: STANDARD PLATE) was “inactive; negative” and the mutagenic call [4] was “inactive; negative”. For the same compound, the mutagenic call [10] was “inactive; negative”, the mutagenic call [11] was “inactive; negative” and the mutagenic call [12] was “inactive; negative”. The mutagenic call (Test System: CHINESE HAMSTER V-79, Strain/Indicator: V-79/6-THIOGUANINE, Metabolic Activation: NONE, Method: STANDARD PLATE) was “inactive; negative”, the mutagenic call (Test System: CHINESE HAMSTER V-79, Strain/Indicator: V-79/6-THIOGUANINE, Metabolic Activation: RAT HEPATOCYTES, Method: STANDARD PLATE) was “inactive; negative” and the mutagenic call (Test System: CHINESE HAMSTER V-79, Strain/Indicator: V-79/OUABAIN, Metabolic Activation: NONE, Method: STANDARD PLATE) was “inactive; negative”. The mutagenic call (Test System: CHINESE HAMSTER V-79, Strain/Indicator: V-79/OUABAIN, Metabolic Activation: RAT HEPATOCYTES, Method: STANDARD PLATE) was “inactive; negative”, the mutagenic call (Test System: E. COLI, Strain/Indicator: WP2, Metabolic Activation: NONE, Method: STANDARD PLATE) was “inactive; negative” and the mutagenic call (Test System: E. COLI, Strain/Indicator: WP2, Metabolic Activation: RAT, LIVER, S-9, AROCLOR 1254, Method: STANDARD PLATE) was “inactive; negative”.
`Cc1ccc(N(SC(F)(Cl)Cl)S(=O)(=O)N(C)C)cc1` was tested, and the mutagenic call (End Point: In vivo chromosomal aberrations, Test System: Peripheral blood lymphocytes, Species: Sheep, Strain/Sex: Merino/female, Route: Intrarumen) was “active; positive (structural changes)” and the mutagenic call (End Point: In vivo micronucleus, Test System: Peripheral blood lymphocytes, Species: Sheep, Strain/Sex: Merino/female, Route: Intrarumen) was “active; positive”.
